# Measured values published in patent US11248995B2, “Hydrogel encapsulation of living organisms for long-term microscopy” (priority 2017, dated 2022).
# Counter-ions that a name gives are not always drawn.
# What was measured:
# AWA sensory neuron pair = test: Microfluidic chemical pulse stimulation of hydrogel-embedded C. elegans, GCaMP light sheet imaging; type: in vivo; settings: 5-s and 10-s pulses
# Description: Wild-type C. elegans expressing GCaMP in the AWA sensory neuron pair were encapsulated in a hydrogel disk above a 100 μm wide microfluidic channel. External tubing connections and valves delivered 1, 5, or 10 second long pulses of chemical flow beneath the hydrogel disk. Small molecule chemicals (MW<500 Da) diffuse rapidly through the hydrogel, typically in under 1 second, to reach the encapsulated organism(s).
# C. elegans [1] = test: Quantification of movement of hydrogel-embedded animals; type: in vivo
# Description: Young adult QW1217 worms with pan-neuronal expression of nuclear-localized mCherry were embedded in 10% and 20% PEG hydrogels (3 μL with 100 μm spacer, 0.1% I2959, 20 s exposure using a 312 nm UV source). Worms received either no pretreatment, exposure to hypoosmotic (diH2O, 0 mOsm) or hyperosmotic buffers (0.5 M glycerol in diH2O, 500 mOsm or 1.5×S-Basal, 420 mOsm) for 10 min, or cooling in a −20° C. freezer or in contact with ice for 1-3 min prior to crosslinking. PEG hydrogel solutions were prepared in diH2O or S-Basal buffer, and some contained the paralytic reagents 25 mM sodium azide (Massie et al., 2003) or 1 mM tetramisole hydrochloride (Sigma) (Larsch et al., 2013). Other hydrogel solutions were prepared in 500 mM glycerol or 1.5×S-Basal hyperosmotic buffers. After crosslinking, all hydrogels were submerged in an aqueous solution of either S-Basal, diH20, sodium azide (25 mM) or tetramisole (1 mM) for imaging. Videos were captured with a Hamamatsu Orca-Flash 4.0 camera at 1 frame/sec for 3 min on a Zeiss AxioObserver inverted epifluorescence microscope with a 20×/0.5 NA objective.
# Animal movement was analysed by comparing frame-to-frame image differences. Movement index is described using the equation M.I.=ΔIROI/IROI−IBG, where ΔIROI represents the difference in pixel intensity between consecutive frames, averaged across a region of interest (ROI), IROI represents the average intensity of the ROI, and IBG represents the average intensity of a Background region. […] First, the absolute value differences between each pair of consecutive frame averaged pixel intensities were calculated. Next, the difference image stack was smoothed (average of its 3×3 neighborhood). To reduce the contribution of pixel noise, a value of 10 (corresponding to average pixel noise) was subtracted uniformly from each frame and negative values were set to 0. Regions of Interest (ROIs) were selected over the head (nerve ring) and ventral cord and a background region (BG). The movement index was calculated as […], where ΔIROI is the mean of difference images across the ROI, and ΔIROI and IBG, are the mean intensity of the ROI and background regions for the first frame, respectively. Here, identical sequential frames would have a M.I. of zero, whereas images that have changes in position, rotation, focus, or intensity have increasing M.I. values.
# Movement in the image plane was quantified by tracking cell nucleus position over 3 minutes. Individual neurons were tracked using NeuroTracker (Larsch et al., 2013) and centroid positions were used to determine the range of axial movement by the animal.
# [2] = tested on: AWA chemosensory neuron calcium responses; test: Automated small-molecule screening of optogenetically-evoked calcium activity suppressors (LOPAC library); type: in vivo, C. elegans; settings: 10 μM, 1% DMSO, about 18 hours exposure; beyond mean ± 3 standard deviations
# Description: For all well plate experiments, equal parts of 20% PEGDA (0.1% Irgacure) was added to a synchronized animal population in M9, resulting in ˜5 an/μL, 10% PEGDA, 0.05% Irgacure, and 0.5×M9. […] Both procedures used repeated mixing (4-5×) to maintain an even animal suspension during transfer. The animal-containing multiwell plate was transiently cooled for 10 min at −20° C. to settle animals at the bottom of the well, then immediately exposed to 308 nm UV light to photo-crosslink and embed the animals. Single wells can also be prepared by standard picking and transfer of animals to a final 10% gel solution (using PCR tubes), depending on experimental design or desired throughput.
# Aliquoted LOPAC drug library plates were received from the UMMS small-molecule screening facility as 16 individual 96-well plates containing 3 nmol of compound per well (3 μL of 1 mM in 100% DMSO), stored at −80° C. until use. […]
# A suite of custom ImageJ macros was developed for automated neuron selection and trace recording (aNT), or to manually select neurons (neuronPos) and then record calcium intensity in each well across all wells and cycles automatically (NT). […] Local background subtracted fluorescence (F) was calculated as F=(FR−Fbg).
# C. elegans [3] = settings: 25 mM sodium azide, agarose pad
# Description: For hydrogel encapsulation, 5 μL of a 10% PEG hydrogel with 0.1% I2959 containing late L1/L2 stage animals was placed on a fluorinated glass slide with 50 μm thick tape spacers, polymerized with 312 nm UV light, and imaged on an upright Zeiss Axioskop microscope with a 100×/1.4 NA objective using DIC optics. Images were captured every hour for 12 hours without movement of the sample. For comparison, animals were mounted onto conventional agarose pads with chemical or physical restraint. […] Animals were picked into this droplet and a cover slip was placed on top before imaging. Alternatively, a 0.25-0.5 μL drop of polystyrene nanobeads (100 nm, Polysciences, Inc.) was placed on a 10% agarose pad prior to adding animals, a cover slip, and imaging.
# AWA activity = test: Nemadipine-A treatment of multi-well plate embedded animals, optogenetically-evoked calcium responses; type: in vivo, C. elegans; settings: 10, 50, 100 uM vs 1% DMSO control, stimulated every 10 min for 24 hours; dose dependence
# Description: A small volume (10 uL) of PEG hydrogel solution (10% with 0.5×S. basal) with photoinitiator was pipetted into each PCR tube (one tube per one well). Young adult animals (CX16573) were transferred into the hydrogel solution by worm pick (up to 40 or more). The hydrogel and worm solution was transferred from one PCR tube to the bottom of one well of a 384 well plate, and repeated for as many PCR tubes prepared. The 384 well plate was placed into −20° C. freezer for no more than 10 min, then immediately placed on the 308 nm light source to crosslinking for no more than 45 s. Then, a small volume (60 uL) of 1 mM ATR in water was pipetted into crosslinked wells, covered, placed in the dark, and allowed to incubate for at least 1 hr, or up to 24 hrs. Animals were then imaged on a custom designed microscope and optical configuration allowing for both red-light excitation and blue-light excitation sent through the objective, all set by the initial experimental settings. Red light pulse durations, well position, cycle number and cycle delay conditions were set by a custom MicroManager script, and executed.
# After crosslinking and before all-trans retinal (ATR) transfer to each well, solutions of 10 μM, 50 μM, and 100 μM nemadipine-A to a final concentration of 1% DMSO in 1 mM ATR were prepared. A control well containing only 1% DMSO in 1 mM ATR was prepared as well. […]
# [4] = hyper-osmotic solution (0.5 M glycerol 500 mOsm or 1.5x S-Basal 420 mOsm) 10 min prior to or during crosslinking, imaged in S-Basal buffer
compound,measurement,setting,value
CC(=O)C(C)=O [diacetyl],AWA neuron response (relative integrated fluorescence) to odor stimulation,AWA sensory neuron pair,stimulated one of the two neurons
"c1ccc(C2CN3CCSC3=N2)cc1 (stereo not drawn) [tetramisole, tetramisole hydrochloride]",Movement (displacement range) over 3 minutes,C. elegans [1]; in vivo,19 μm
same,Movement index (M.I.),C. elegans [1]; in vivo,0.06±0.02
same,Reduction of movement index,C. elegans [1]; in vivo,5 fold
ivermectin,"Screen result: relative peak ΔF/F0 calcium response, fold change cycle 4 to 1",[2],positive hits
[N-]=[N+]=[N-] [sodium azide],Reduction of movement index,"C. elegans [1]; 20% PEG hydrogels, paralytic vs no paralytic, P<0.0001",5 fold
same,Movement index (M.I.),"C. elegans [1]; C. elegans embedded in 20% PEG hydrogels, mean over 3 min, 25 mM sodium azide or 1 mM tetramisole during gelation or transiently after encapsulation, hydrogel alone without paralytic",0.07±0.01
same,Movement (displacement range) over 3 minutes,"C. elegans [1]; C. elegans embedded in 20% PEG hydrogels, 25 mM sodium azide or 1 mM tetramisole, hydrogel alone without paralytic",18 μm
same,Cell death in paralyzed animals,C. elegans [3],characteristics of necrotic cell death after 6 hours
OCC(O)CO [glycerol],Movement index (M.I.),C. elegans [1]; [4],0.02±0.007
same,Range of movement over 3 min,C. elegans [1]; [4],8±7 μm
CCOC(=O)C1=C(C)NC(C)=C(C(=O)OCC)C1c1c(F)c(F)c(F)c(F)c1F [Nemadipine-A],Peak calcium response (change in fluorescence) of AWA,AWA activity,reduction in peak response
